Experimental data: patent publication EP0747380B1, “Compounds and compositions with nitrogen-containing non-basic side chains” (ELI LILLY AND COMPANY, priority 1995, dated 1996)
Read-outs that look alike come from different tables or passages of the source. Marks after values point to notes of the source that are not given here.

Tests used:
uterus = assay: Uterine wet weight, post-menopausal (OVX) rat model, four day dosing regimen; type: in vivo, female Sprague Dawley rats; conditions: oral, daily for 4 days, OVX rats, * = significantly different than OVX control
Description: In the examples illustrating the methods, a post-menopausal model was used in which effects of different treatments upon various biological parameters were determined, including serum cholesterol concentration, uterine weight, eosinophil peroxidase activity, MCF-7 cell proliferation, and bone density.
(§1) Animals were dosed daily for 4 days. […] A blood sample was collected by cardiac puncture.

serum cholesterol = assay: Serum cholesterol analysis, OVX rat, four day dosing regimen; type: in vivo, female Sprague Dawley rats; conditions: Rattus norvegicus, 96 h, oral, daily for 4 days, OVX rats, * = significantly different than OVX control, read-out: Serum Cholesterol (% dec. OVX)
Description: as §1
Blood samples were allowed to clot at room temperature for 2 hours, and serum was obtained following centrifugation for 10 minutes at 3000 rpm. Serum cholesterol was determined using a Boehringer Mannheim Diagnostics high performance cholesterol assay. Briefly the cholesterol was oxidized to cholest-4-en-3-one and hydrogen peroxide. The hydrogen peroxide was then reacted with phenol and 4-aminophenazone in the presence of peroxidase to produce a p-quinone imine dye, which was read spectrophotemetrically at 500 nm. Cholesterol concentration was then calculated against a standard curve. The entire assay was automated using a Biomek Automated Workstation.

[1] = test system: MCF-7 breast adenocarcinoma cells; assay: MCF-7 proliferation assay (tritiated thymidine incorporation); type: cell-based; conditions: Homo sapiens, MCF7; MCF-7 cells, 48 hours with drug, tritiated thymidine pulse 4 hours; read-out: ED50 (the source's name)
Description: MCF-7 breast adenocarcinoma cells (ATCC HTB 22) were maintained in MEM (minimal essential medium, phenol red-free, Sigma, St. Louis, MO) supplemented with 10% fetal bovine serum (FBS) (V/V), L-glutamine (2 mM), sodium pyruvate (1 mM), HEPES {(N-[2-hydroxyethyl]piperazine-N'-[2-ethanesulfonic acid]10 mM}, non-essential amino acids and bovine insulin (1 µg/ml) (maintenance medium). Ten days prior to assay, MCF-7 cells were switched to maintenance medium supplemented with 10% dextrancoated charcoal stripped fetal bovine serum (DCC-FBS) assay medium) in place of 10% FBS to deplete internal stores of steroids. MCF-7 cells were removed from maintenance flasks using cell dissociation medium (Ca++/Mg++ free HBSS (phenol red-free) supplemented with 10 mM HEPES and 2 mM EDTA). Cells were washed twice with assay medium and adjusted to 80,000 cells/ml. […] Serial dilutions of drugs or DMSO as a diluent control were prepared in assay medium and […] to triplicate microcultures followed by 50 ml assay medium for a final volume of […]. After an additional 48 hours at 37° C in a 5% CO2 humidified incubator, microcultures were pulsed with tritiated thymidine (1 uCi/well) for 4 hours. Cultures were terminated by freezing at -70° C for 24 hours followed by thawing and harvesting of microcultures. Samples were counted by liquid scintillation.

[2] = test system: eosinophil peroxidase activity; assay: Uterine eosinophil peroxidase (EPO) assay, OVX rat, four day dosing regimen; conditions: oral, daily for 4 days, OVX rats, * = significantly different than OVX control
Description: (§2) Seventy-five day old female Sprague Dawley rats (weight range of 200 to 225 g) were obtained from Charles River Laboratories (Portage, MI). The animals were either bilaterally ovariectomized (OVX) or exposed to a sham surgical procedure (Intact) at Charles River Laboratories, and then shipped after one week. Upon arrival, they were housed in metal hanging cages in groups of 3 or 4 per cage and had ad libitum access to food (calcium content approximately 0.5%) and water for one week. […] The photoperiod in the room was 12 hours light and 12 hours dark.
(§3) After a one week acclimation period (therefore, two weeks post-OVX), daily dosing with test compound was initiated. 17α-Ethynyl estradiol (EE2) (Sigma Chemical Co., St. Louis, MO), an orally available form of estrogen, or the test compound were given orally, unless otherwise stated, as a suspension in 1% carboxymethyl cellulose or dissolved in 20% cyclodextrin. Animals were dosed daily for 4 days. Following the dosing regimen, animals were weighed and anesthetized with a ketamine:xylazine (2:1, v:v) mixture. A blood sample was collected by cardiac puncture. The animals were then sacrificed by asphyxiation with CO2, the uterus was removed through a midline incision, and a wet uterine weight was determined.
(§4) Uteri were kept at 4° C until time of enzymatic analysis. The uteri were then homogenized in 50 volumes of 50 mM Tris buffer (pH - 8.0) containing 0.005% Triton X-100. Upon addition of 0.01% hydrogen peroxide and 10 mM o-phenylenediamine (final concentrations) in Tris buffer, increase in absorbance was monitored for one minute at 450 nm. […] The maximal velocity of a 15 second interval was determined over the initial, linear portion of the reaction curve.

[3] = test system: eosinophil peroxidase activity; conditions: rat, in vivo, po
Description: as §2, §3, §4

Compound | Uterine Weight (% inc. OVX) (uterus; Dose 0.1 mg/kg) | Uterine Weight (% inc. OVX) (uterus; Dose 1 mg/kg) | Uterine Weight (% inc. OVX) (uterus; Dose 10 mg/kg) | inhibition in vivo at 0.1 mg/kg (serum cholesterol) | inhibition in vivo at 1 mg/kg (serum cholesterol) | inhibition in vivo at 10 mg/kg (serum cholesterol) | EC50 [1] | Uterine EPO (Vmax) ([2]; Dose 0.1 mg/kg) | Uterine EPO (Vmax) ([2]; Dose 1 mg/kg) | Uterine EPO (Vmax) ([2]; Dose 10 mg/kg) | Uterine EPO (Vmax) ([3]; 0.1 mg/kg) | Uterine EPO (Vmax) ([3]; 1 mg/kg) | Uterine EPO (Vmax) ([3]; 10 mg/kg)
O=C(c1ccc(OCCN2CCCCC2=O)cc1)c1c(-c2ccc(O)cc2)sc2cc(O)ccc12 [Compound 3] | 13.3% | 17.8% | 57.6* % | 38.1% | 45.8% | 72.4% | 600 nM | 8.0 | 7.8 | 8.9 | – | – | –
CCCCN(C)C(=O)COc1ccc(C(=O)c2c(-c3ccc(O)cc3)sc3cc(O)ccc23)cc1 [Compound 10] | 1.5% | -6.7% | 38.0* % | -40% | 19.1% | 67.1% | 50 nM | 4.3 | 3.1 | 17.0 | – | – | –
O=C(c1ccc(OCCN2C(=O)CCC2=O)cc1)c1c(-c2ccc(O)cc2)sc2cc(O)ccc12 [Compound 13] | 22.2% | 7.2% | -4.0% | 37.6% | 12.6% | 30.1% | > 1000 nM | 1.9 | 1.7 | 2.5 | – | – | –
O=C(c1ccc(OCCN2CCCC2=O)cc1)c1c(-c2ccc(O)cc2)sc2cc(O)ccc12 [Compound 6] | -9% | 15.4% | 40.3* % | 33.6% | 52.4% | 67.5% | – | 3.6 | 1.4 | 3.7 | – | – | –
O=C(c1ccc(OCC(=O)N2CCCCC2)cc1)c1c(-c2ccc(O)cc2)sc2cc(O)ccc12 [Compound 9] | -10.0% | 6.5% | 51.7* % | 4.2% | 22% | 74.3% | 10 nM | 2.8 | 3.6 | 32 | – | – | –
CC(C)(C)C(=O)N1CCC(Oc2ccc(C(=O)c3c(-c4ccc(O)cc4)sc4cc(O)ccc34)cc2)CC1 [Compound 23] | -4.3% | 0.8% | 22.3% | -17.4% | -5.2% | – | 4 nM | 1.6 | 3.8 | 6.7 | – | – | –
O=C(c1ccc(OCCNC(=O)C2CCCCC2)cc1)c1c(-c2ccc(O)cc2)sc2cc(O)ccc12 [Compound 21] | – | – | – | – | – | – | – | 3.1 | 2.6 | 2.4 | – | – | –
CC(=O)NCCOc1ccc(C(=O)c2c(-c3ccc(O)cc3)sc3cc(O)ccc23)cc1 [Compound 26] | -17.5% | – | – | 15.8% | – | – | – | 1.3 | 0.7 | 13.6 | – | – | –
CC(C)(C)C(=O)N1CCCCC1COc1ccc(C(=O)c2c(-c3ccc(O)cc3)sc3cc(O)ccc23)cc1 (stereo not shown) [Compound 22] | – | – | – | – | – | – | 0.01 nM | – | – | – | 3.5 | 20.0 | 69.5*
